One data set has as its system mice. The experiment in a line: Acute toxicity (LD50), intravenous injection in mice. Type of data set: in vivo. The settings on record: statement in words. How it is done: The LD50 of these bistramides is in fact of the order of 1.7 mg/kg (measured in mice, after injection of the product by intravenous route as a single dose).
The "LD50 " of the products of the invention has been measured for mice after injection of the products by intravenous route.

Data set [1] relates to NSCLC solid tumours (xenograft). It is filed as in vivo, nude mouse. How it is done: The anti-tumoural activity of the products of the invention was studied against solid tumours of NSCLC type grafted onto a nude mouse (D. Riou, C. Roussakis, J. F. Biard, J. F. Verbist: "Comparative study of antitumor activity of bistramides A, D and K against non-small cell bronchopulmonary carcinoma", Anticancer Research, 1993, 13, 2321-2334). Each mouse received 0.2 ml of a cell solution obtained by the mechanical dispersion of about 1 g of excised mouse tumour in 4.8 ml of a sterile saline solution. The sub-cutaneous grafted tumours were measured over their long length L and their short length 1. The tumoural volume was evaluated according to the formula Vt=L×1^2 /2. The tumoural growth on day d was calculated by the formula Vtd /Vtd0 for each mouse, Vtd0 being the tumoural volume at the start of treatment.
The curve "------.circle-solid.------ " relates to the control experiment, the curves "--- .diamond-solid.---", "-- .quadrature.--" and "-- .box-solid.--" to experiments with 10, 20 and 5 mg/kg of bistramide D respectively and the curve "----*----" to an experiment with 10 mg/kg of bistramide K. Each point represents the average tumoural growth for 6 mice.
In these experiments, bistramide K is injected at the rate of 10 mg/kg by intraperitoneal route for 16 days and bistramide D at the rate of 5 mg/kg by intraperitoneal route every day for 16 days; at 10 mg/kg by intravenous route on days 1, 5, 9, 14, and at 20 mg/kg by intravenous route on days 1, 5, 9, 14.

In the next data set the test system is P388 (p388s). The experiment in a line: Cytotoxicity, 50% inhibition of cell growth, P388. Type of data set: cell-based. The settings on record: Mus musculus, P388/S, read-out: IC50 (50% inhibition of cell growth). How it is done:
(§1) The cytoxicity results are recorded hereafter as the IC50 in μg/ml (concentration corresponding to a 50% inhibition of cell growth) on 6 tumoural lines namely KB, P388, P388/dox (resistant to doxorubicin), B16 and H429 and NSCLC-N6, which are human cells of non-small cell bronchopulmonary carcinoma type.
(§2) The determinations were carried out according to the protocol given in Cancer Chemother. Pharmacol. (1991) 28:283-292 by Roussakis et al.

Another data set deals with P388/dox (p388r). The experiment in a line: Cytotoxicity, 50% inhibition of cell growth, P388/dox (resistant to doxorubicin). Type of data set: cell-based. To be noted: Mus musculus. How it is done: as §1, §2
The subject of another data set is KB. The experiment in a line: Cytotoxicity, 50% inhibition of cell growth, KB. It is filed as cell-based. The settings on record: Homo sapiens, read-out: IC50 (50% inhibition of cell growth). How it is done: as §1, §2
In the next data set the test system is B16. The experiment in a line: Cytotoxicity, 50% inhibition of cell growth, B16. Type of data set: cell-based. How it is done: as §1, §2
In another data set the test system is NSCLC.N6-L16. The experiment in a line: Cytotoxicity, 50% inhibition of cell growth, NSCLC-N6. It is filed as cell-based. To be noted: Homo sapiens. On the procedure:
as §1, §2

In another data set the test system is HT 29. The experiment in a line: Cytotoxicity, 50% inhibition of cell growth, HT 29. Type of data set: cell-based. To be noted: Homo sapiens. How it is done:
as §1, §2

Converted amounts (≈) assume the structure as drawn. “Also recorded” adds a separate entry of the source. Like-named read-outs stand apart in the source and are kept apart here.

For the compound `C/C=C/C(=O)CC1CCC(C)C(CC(=O)NCC(O)C(C)C(=O)NCCCC2OC3(CCCC(CCC(C)/C=C(\C)C(C)O)O3)CCC2C)O1` (stereo not drawn) [Bistramide A], the toxicity in vivo entry is “high toxicity; also recorded: toxic” in the data set on mice and “acute toxicity” in the data set with mice (listed as A bistramide). Moreover, the “toxicity under the conditions of the xenograft test” value in data set [1] (mouse, in vivo) is recorded as “too toxic for an anti-tumoural effect to be observed”.

`CCCC(=O)CC1CCC(C)C(CC(=O)NCC(O)C(C)C(=O)NCCCC2OC3(CCCC(CCC(C)C=C(C)C(C)O)O3)CCC2C)O1` (stereo not drawn) [Bistramide B]: in the data set on mice, the toxicity in vivo result was “high toxicity”.

As to `C/C=C/C(=O)CC1CCC(C)C(CC(=O)NCC(O)C(C)C(=O)NCCCC2OC3(CCCC(CCC(C)C=C(C)C(C)=O)O3)CCC2C)O1` (stereo not drawn) [Bistramide C], the toxicity in vivo result in the data set with mice was “high toxicity”.

Broadly, the IC50 is the midpoint of a concentration-inhibition curve. As for `C/C=C/C(O)C/C=C/CC(C)C(O)CC(=O)NCC(O)C(C)C(=O)NCCCC1OC2(CCCC(CCC(C)/C=C(\C)C(C)O)O2)CCC1C` (stereo not drawn) [Bistramide K], the IC50 in the data set with P388 (p388s) (p388s) was 0.57 µg/mL (≈ 0.806 µM); in the data set with P388/dox (p388r) it was above 10 µg/mL; in the data set on KB it was above 10 µg/mL; with B16 (Mus musculus, B16; read-out: IC50 (50% inhibition of cell growth)) it was 1.9 µg/mL (≈ 2.69 µM); in the data set with NSCLC.N6-L16 (NSCLC.N6-L16, read-out: IC50 (50% inhibition of cell growth)) it was 3.23 µg/mL (≈ 4.57 µM); in the data set with HT 29 (HT 29, read-out: IC50 (50% inhibition of cell growth)), 5.6 µg/mL (≈ 7.92 µM). The “tumoural growth relative to controls (100%)” value in data set [1] (10 mg/kg, IP, for 16 days, at the end of 30 days) is recorded as 49%.

As to `C/C=C\C(=O)CC1CCC(C)C(CC(=O)NCC(O)C(C)C(=O)NCCCC2OC3(CCCC(CCC(C)/C=C(\C)C(C)O)O3)CCC2C)O1` (stereo not drawn) [Bistramide L], the half-inhibitory concentration (IC50) came to 0.48 µg/mL (≈ 0.681 µM) in the data set on P388 (p388s); 0.12 µg/mL (≈ 0.17 µM) in the data set with P388/dox (p388r); 0.72 µg/mL (≈ 1.02 µM) with KB; 2.4 µg/mL (≈ 3.4 µM) with B16 (Mus musculus, B16, read-out: IC50 (50% inhibition of cell growth)); 0.12 µg/mL (≈ 0.17 µM) with NSCLC.N6-L16 (NSCLC-N6, read-out: IC50 (50% inhibition of cell growth)); 0.29 µg/mL (≈ 0.411 µM) in the data set on HT 29 (HT-29, read-out: IC50 (50% inhibition of cell growth)).

For the origin of these results see patent US5798381A, “Biologically active bistramides, process for their production and their applications in therapy” (Institut Francais de Recherche Scientifique pour le …, priority 1993, dated 1998).
